Data on six molecules can be found in ChEMBL document CHEMBL1817634, “One-pot synthesis of pyrazoline derivatised carbazoles as antitubercular, anticancer agents, their DNA cleavage and antioxidant activities” (2011).

Test [1] relates to Mycobacterium tuberculosis. The test can be described thus: Antitubercular activity against Mycobacterium tuberculosis H37Rv after 3 weeks by turbidity assay. The note with it: 504 h. The class given is functional.
The subject of test [2] is A498. The test can be described thus: Anticancer activity against human A498 cells assessed as cell growth at 10 ug/mL by sulforhodamine B assay. The class given is functional. The note with it: read-out: Activity.
The test system of test [3] is A498. The test can be described thus: Anticancer activity against human A498 cells assessed as cell growth at 20 ug/mL by sulforhodamine B assay. Format: functional. The note with it: read-out: Activity. (In general: In SRB staining, fixed cells bind dye roughly in proportion to their protein.)
Test [4] concerns A498. The test can be described thus: Anticancer activity against human A498 cells assessed as cell growth at 40 ug/mL by sulforhodamine B assay. The conditions noted are these: read-out: Activity. Format: functional.
Test [5] concerns A498. The test can be described thus: Anticancer activity against human A498 cells assessed as cell growth at 80 ug/mL by sulforhodamine B assay. The class given is functional. The conditions noted are these: read-out: Activity.
The subject of test [6] is A498. The test can be described thus: Cytotoxicity against human A498 cells. Format: functional.
Test [7] concerns A549. The test can be described thus: Anticancer activity against human A549 cells assessed as cell growth at 10 ug/mL by sulforhodamine B assay. Format: functional. The conditions noted are these: read-out: Activity.
For test [8], the system named is A549. Put plainly: Anticancer activity against human A549 cells assessed as cell growth at 20 ug/mL by sulforhodamine B assay. The class given is functional. The conditions noted are these: read-out: Activity.
For test [9], the system named is A549. Put plainly: Anticancer activity against human A549 cells assessed as cell growth at 40 ug/mL by sulforhodamine B assay. Format: functional. The note with it: read-out: Activity.
The test system of test [10] is A549. Put plainly: Anticancer activity against human A549 cells assessed as cell growth at 80 ug/mL by sulforhodamine B assay. Format: functional. The note with it: read-out: Activity.
Test [11] deals with A549. The test can be described thus: Cytotoxicity against human A549 cells. The class given is functional.
For the next test, the system named is Nucleic Acid. The test can be described thus: Induction of Escherichia coli DNA cleavage at 100 ug after 2 hrs by agarose gel electrophoresis. The class given is nucleic-acid assay.
The nature of test [12]: Antioxidant activity assessed as potassium ferric cyanide reducing power at 10 ug after 20 mins by spectrophotometry. The class given is functional.
Test [13] is described as follows: Antioxidant activity assessed as potassium ferric cyanide reducing power at 50 ug after 20 mins by spectrophotometry. The class given is functional.
Test [14] can be described thus: Antioxidant activity assessed as potassium ferric cyanide reducing power at 100 ug after 20 mins by spectrophotometry. Format: functional.

Structures are written as SMILES. ≈ marks a conversion by molar mass, not a printed value. Calls of active or inactive are those of the source. The rule behind the calls is not given here.

Broadly, the MIC is the lowest concentration that inhibits growth of the organism. The low end stands for inhibition by little substance, the high end for a need for much substance. The GI50 is the concentration that inhibits growth by half. A high value points to less potent growth inhibition. The term LC50 denotes the concentration lethal to half of the exposed cells or organisms. As usually defined, the TGI is the concentration giving total growth inhibition. Higher therefore signals lower sensitivity of the cells. `C(=C\C1CC(c2ccc3[nH]c4c(c3c2)CCCC4)=NN1)/c1ccccc1` (stereo unspecified) had a minimal inhibitory concentration (MIC) in test [1] of 25 µg/mL (≈ 73.2 µM). For the same molecule, the growth at 10 µg/mL in the test on A498 [2] was 99.5%; in the test on A549 [7], 98.8%. The growth at 20 µg/mL was 99.7% with A498 [3] and 94.8% with A549 [8]. For the same molecule, the results for the growth at 40 µg/mL in the test on A498 [4] and with A549 [9] were 95.7% and 88.4%, respectively. Also, the growth at 80 µg/mL was determined as 6% with A498 [5] and 48.7% in the test with A549 [10]. Further, the 50% growth inhibitory concentration (GI50) with A498 [6] came to 57 µg/mL (≈ 167 µM); in the test on A549 [11], 54 µg/mL (≈ 158 µM). Besides, the LC50 in the test with A498 [6] and with A549 [11] was above 80 µg/mL each time. The concentration for total growth inhibition (TGI) with A498 [6] and in the test with A549 [11] was above 80 µg/mL in each case. For the same molecule, the outcome with Nucleic Acid was inactive. For the same molecule, the figures for the reducing power in test [12], in [13] and in test [14] were 0.19 absorbance, 0.47 absorbance and 0.67 absorbance, respectively.

As for `COc1ccc(C2CC(c3ccc4[nH]c5c(c4c3)CCCC5)=NN2)cc1` (stereo unspecified), the MIC in test [1] was 10 µg/mL (≈ 28.9 µM). Also, the figures for the growth at 10 µg/mL in the test on A498 [2] and in the test with A549 [7] were 98.3% and 81.6%, respectively. In addition, the growth at 20 µg/mL was found to be 100% with A498 [3] and 76.2% with A549 [8]. In addition, the growth at 40 µg/mL with A498 [4] was found to be 97.7%; in the test with A549 [9], 69.4%. In addition, the results for the growth at 80 µg/mL in the test on A498 [5] and in the test with A549 [10] were 4.2% and 15.3%, respectively. For the same molecule, the results for the GI50 in the test with A498 [6] and in the test on A549 [11] were 55 µg/mL (≈ 159 µM) and 56.2 µg/mL (≈ 163 µM), respectively. For the same molecule, the LC50 with A498 [6] and in the test with A549 [11] was above 80 µg/mL each time. The TGI in the test with A498 [6] and in the test with A549 [11] was above 80 µg/mL in each case. For the same molecule, the outcome in the test with Nucleic Acid was inactive. Further, the reducing power in test [12] worked out at 0.193 absorbance; in test [13], 0.473 absorbance; in [14], 0.673 absorbance.

Regarding `Clc1ccccc1C1CC(c2ccc3[nH]c4c(c3c2)CCCC4)=NN1` (stereo unspecified), in test [1], the MIC came to 5 µg/mL (≈ 14.3 µM). Besides, the growth at 10 µg/mL with A498 [2] is 100%; with A549 [7], 90.2%. Also, the growth at 20 µg/mL with A498 [3] stood at 100%; in the test on A549 [8], 81.6%. The growth at 40 µg/mL with A498 [4] is 97.4%; with A549 [9], 75.7%. Further, the growth at 80 µg/mL in the test on A498 [5] came to 16.2%; with A549 [10], 12.1%. For the same molecule, the GI50 was 62 µg/mL (≈ 177 µM) in the test on A498 [6] and 51.6 µg/mL (≈ 147 µM) in the test on A549 [11]. Further, the LC50 in the test with A498 [6] and in the test with A549 [11] was above 80 µg/mL each time. Moreover, the TGI with A498 [6] and in the test with A549 [11] was above 80 µg/mL in each case. The outcome in the test with Nucleic Acid was inactive. Besides, the figures for the reducing power in [12], in test [13] and in test [14] were 0.004 absorbance, 0.121 absorbance and 0.295 absorbance, respectively.

`CN[C@@H]1[C@H](O[C@H]2[C@H](O[C@H]3[C@H](O)[C@@H](O)[C@H](N=C(N)N)[C@@H](O)[C@@H]3N=C(N)N)O[C@@H](C)[C@]2(O)C=O)O[C@@H](CO)[C@H](O)[C@H]1O` [STREPTOMYCIN] came in with an MIC in test [1] of 7.5 µg/mL (≈ 12.9 µM).

As for `NC(=O)c1cnccn1` [PYRAZINAMIDE], in test [1], the minimal inhibitory concentration (MIC) was 10 µg/mL (≈ 81.2 µM).

As to `COc1cccc2c1C(=O)c1c(O)c3c(c(O)c1C2=O)C[C@@](O)(C(=O)CO)C[C@@H]3O[C@H]1C[C@H](N)[C@H](O)[C@H](C)O1` [DOXORUBICIN], the growth at 10 µg/mL in the test on A498 [2] and in the test on A549 [7] was 10.7% throughout. In addition, the growth at 20 µg/mL in the test on A498 [3] and with A549 [8] was 8.2% each time. Moreover, the growth at 40 µg/mL in the test on A498 [4] and in the test on A549 [9] was -39.5% in each case. Moreover, the growth at 80 µg/mL in the test on A498 [5] and with A549 [10] was -66.9% each time. Further, the GI50 with A498 [6] and in the test with A549 [11] was below 10 µg/mL each time. Also, the results for the TGI in the test on A498 [6] and with A549 [11] were 32.4 µg/mL (≈ 59.6 µM) and 41.3 µg/mL (≈ 76 µM), respectively.
